Earlier results, collected in patent US20110092535A1, “Novel Epilepsy Treatment” (priority 2006, published 2011).
Where two headings read alike, the source gives them in different places.

System: maximal electric shock-induced seizures
Conditions: rats

Cc1nccn1CC1CCc2c(c3ccccc3n2C)C1=O (centres unmarked) [Ondansetron]
effect against maximal electric shock-induced seizures (higher doses (>2 mg/kg)): ineffective
effect against maximal electric shock-induced seizures (low doses): effective
